Laboratory results published in patent EP0656355A1, “BIPHENYLMETHANE DERIVATIVE AND MEDICINE CONTAINING THE SAME” (WAKUNAGA SEIYAKU KABUSHIKI KAISHA, priority 1992, dated 1994).

Legend:
[1] = tested on: renal hypertensive rats; test: Antihypertensive action on renal hypertensive rats (invasive); type: in vivo, male SD rat; settings: decreased rate of mean blood pressure; orally administered at 3 mg/kg; femoral artery cannula
Description: (4) Antihypertensive action on renal hypertensive rats (invasive)
Renal hypertensive rats were each prepared by constricting the left renal artery of a male SD rat (age: 6 weeks old, body weight: 190-220 g) with a silver clip (inner diameter: 0.017 inch) under anesthesia. Antihypertensive action was studied employing the rats whose mean blood pressure arose to 150 mmHg or higher in 4-8 weeks after the constriction of the renal artery. On the day before the test, a cannula for measure of blood pressure was inserted into the femoral artery of each of the renal hypertensive rats under anesthesia and was allowed to remain in the artery. The rats were maintained on food and water ad libitum until immediately before the test was started. The cannula so inserted was connected to a blood pressure transducer and mean blood pressure was recorded on a polygraph. After the blood pressure became stable, the test compound which was suspended in 0.5% carboxymethyl cellulose was orally administered to each of the rats at 3 mg/kg. In accordance with the following equation, a decreased rate of blood pressure (%) was calculated from the blood pressure values before and after the administration of the test compound. [formula]

[2] = target: T1, angiotensin II (AII) receptor (Rattus norvegicus, UniProt P25095); test: Inhibitory action against the binding with angiotensin II (AII) receptor, 125I-AII competition on cultured rat aortic smooth muscle cells; parameters: species or system male Wistar rat; settings: 50% substitution of ¹²⁵I-AII specific binding; ¹²⁵I-AII 2 x 10⁻¹⁰M; one hour at room temperature; rat vascular smooth muscle cells; read-out: IC₅₀
T1 construct: Vascular smooth muscle cells, which had been separated from the aorta of a male Wistar rat and cultured on a 24-well multiplate; endogenous in cells; host or cells: primary cultured vascular smooth muscle cells from the aorta of a male Wistar rat
T1 sequence (P25095 1-359): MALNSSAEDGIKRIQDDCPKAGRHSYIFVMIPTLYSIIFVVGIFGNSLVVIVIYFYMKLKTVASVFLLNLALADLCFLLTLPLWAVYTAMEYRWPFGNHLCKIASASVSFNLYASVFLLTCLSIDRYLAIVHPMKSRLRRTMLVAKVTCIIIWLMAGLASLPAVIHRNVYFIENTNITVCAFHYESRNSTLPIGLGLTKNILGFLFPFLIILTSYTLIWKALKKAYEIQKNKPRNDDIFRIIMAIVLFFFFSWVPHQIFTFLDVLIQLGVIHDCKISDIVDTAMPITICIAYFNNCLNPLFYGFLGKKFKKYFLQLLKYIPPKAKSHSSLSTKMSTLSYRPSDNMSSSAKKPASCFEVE
Protocol: (1) Inhibitory action against the binding with angiotensin II (AII) receptor, using cultured rat aortic smooth muscle cells The present test was conducted in accordance with the method reported by Chiu et al. in European Journal of Pharmacology, 157, 13-21(1988), though after some modifications. […] To each well, ¹²⁵I-AII (final concentration: 2 x 10⁻¹⁰M) was added together with or without a test compound to give a total volume of 0.2 mℓ. Then the wells were incubated for one hour at room temperature to make the ¹²⁵I-AII and the test compound competitively bind to the vascular smooth muscle cells. Each well was thereafter washed with an ice-cold buffer three times to remove unbound ¹²⁵I-AII. To the cells, 0.2 mℓ of a 1 mol/ℓ solution of sodium hydroxide was added to solubilize the bound ¹²⁵I-AII. A bound amount of ¹²⁵I-AII contained in the resulting cell solution was measured by a gamma counter. The above test was conducted for each compound at different concentrations of 3 doses or more. The inhibition rate against the specific binding with ¹²⁵I-AII at each concentration was calculated in accordance with an equation to be set out subsequently herein.

[3] = tested on: angiotensin II contraction in longitudinal ileac muscles; test: Inhibitory activity to angiotensin II contraction in longitudinal ileac muscles excised from a guinea pig; type: cell-based, Hartley male guinea pig; settings: Cavia porcellus, 20 min; 50% contraction inhibition concentration; 10⁻⁸M angiotensin II; test compound reacted for 20 minutes; guinea pig ileum longitudinal muscle; read-out: IC₅₀
Protocol: (2) Inhibitory activity to angiotensin II contraction in longitudinal ileac muscles excised from a guinea pig
A Hartley male guinea pig (350-450 g in weight) was sacrificed under exsanguination, followed by the excision of its ileum.
A longitudinal muscle tissue (2 cm long) was prepared from the ileum in a manner known per se in the art. The sample was suspended in a 20-mℓ Magnus cylinder filled with a Tylode solution [composition (mM): NaCℓ 137, KCℓ 2.7, CaCℓ₂ 1.88, MgCℓ₂ 1.1, NaH₂PO₄ 0.4, NaH₂CO₃ 11.8 and glucose 5.6). The Tylode solution was incubated at 37°C and saturated with a mixed gas consisting of 95% O₂ + 5% CO₂. Using an isometric transducer ("TB-611T", manufactured by Nihon Kohden Corporation), variations in contraction were measured. The measurement results were recorded on a computer ("PC-9801", manufactured by NEC Corporation).
Under a load of 0.5 g initial tension, the longitudinal muscle sample was equilibrated in a nutrient solution for about one hour while being washed therewith at intervals of 15 minutes. Then, contracture by the administration of 80 mM of KCℓ was repeated twice. After conforming that the contraction occurred stably, the following test was conducted.
First, 10^-8M angiotensin II was administered to the sample and its maximum contraction was recorded. The test compound was then administered to the sample and they were reacted for 20 minutes. Administered again was 10⁻⁸M angiotensin II and the maximum contraction was measured. […] This test was repeated at increased concentrations of the test compound. A 50% contraction inhibition concentration (IC₅₀) was determined in accordance with a linear regressive calculation of the contraction inhibition rates.

[4] = tested on: renal hypertensive rats; test: Antihypertensive action on renal hypertensive rats (non-invasive); type: in vivo, male SD rat; settings: decreased rate of systolic blood pressure; orally administered at 10 mg/kg; non-invasive sphygmomanometer
Description: (3) Antihypertensive action on renal hypertensive rats (non-invasive)
Renal hypertensive rats were each prepared by constricting the left renal artery of a male SD rat (age: 6 weeks old, body weight: 200-220 g) with a silver clip (inner diameter: 0.017 inch) under anesthesia. The rats whose systolic blood pressure arose to 160 mmHg or higher in 4-8 weeks after the constriction of the renal artery were used for the test. The rats were maintained on food and water ad libitum until immediately before the test was started. Each test compound which was suspended in 0.5% methyl cellulose was orally administered at 10 mg/kg. After the administration of the test compound, the systolic blood pressure was measured periodically by a non-invasive sphygmomanometer ("BP-98", manufactured by SOFTLON K.K.). In accordance with the following equation, a decreased rate of blood pressure (%) was calculated from the blood pressure values before and after the administration of the compound. [formula]

Row | SMILES | Maximum action (%) [1] | IC50 [2] | IC50 [3] | Maximum action (%) [4]
1 | O=C(O)c1csc(=NC(=O)C2CC2)n1Cc1ccc(-c2ccccc2-c2nnn[nH]2)cc1 [Compound No.242, 2-Cyclopropylcarbonylimino-3-[2'-(1H-tetrazol-5-yl)biphenyl-4-yl]methylthiazoline-4-carboxylic acid] | 29.5% | 13 nM | – | –
2 | CCCc1nn(Cc2ccc(-c3ccccc3-c3nnn[nH]3)cc2)c(=NC(=O)C2CC2)s1 [Compound No.21, 2-Cyclopropylcarbonylimino-5-n-propyl-3-[2'-(1H-tetrazol-5-yl)biphenyl-4-yl]methyl-1,3,4-thiadiazoline] | – | – | 8 nM | 26.3%
3 | Cc1nn(Cc2ccc(-c3ccccc3-c3nnn[nH]3)cc2)c(=NC(=O)C2CC2)s1 [Compound No.17, 2-Cyclopropylcarbonylimino-5-methyl-3-[2'-(1H-tetrazol-5-yl)biphenyl-4-yl]methyl-1,3,4-thiadiazoline] | – | – | 7.5 nM | 25.9%
4 | CCc1nn(Cc2ccc(-c3ccccc3-c3nn[nH]n3)cc2)c(=NC(=O)C2CCCCC2C(=O)O)s1 (racemic) [Compound No.158, cis-2-[[5-Ethyl-3-[2'-(1H-tetrazol-5-yl)biphenyl-4-yl]methyl-1,3,4-thiadiazoline-2-yliden]aminocarbonyl] cyclohxanecarboxylic acid] | 38.4% | – | 0.51 nM | –
5 | CCc1nn(Cc2ccc(-c3ccccc3-c3nnn[nH]3)cc2)c(=NC(=O)c2ccccc2C(=O)O)s1 [Compound No.126, N-[5-Ethyl-3-[2'-(1H-tetrazol-5-yl)biphenyl-4-yl]methyl-1,3,4-thiadiazoline-2-yliden]phthalamic acid] | 27.6% | 32 nM | – | –
6 | CCc1nn(Cc2ccc(-c3ccccc3-c3nnn[nH]3)cc2)c(=NC(=O)C2=C(C(=O)O)CCC2)s1 [Compound No.130, 2-[[5-Ethyl-3-[2'-(1H-tetrazol-5-yl)biphenyl-4-yl]methyl-1,3,4-thiadiazoline-2-yliden]aminocarbonyl]-1-cyclopenten carboxylic acid] | 41.2% | – | 0.65 nM | –
